Experimental data from patent US7732599B2, “Process for preparing tetrahydrobiopterin and analogs of tetrahydrobiopterin” (BioMarin Pharmaceutical Inc., priority 2003, dated 2010).

Assay: Solubility in the reaction solvent dimethylaminoacetate at room temperature
Type: physicochemical
Details: described as low solubility
Description: The conversion of the primary hydroxyl of L-Neopterin to a thioether was performed to prepare 6-((1R,2R)-1,2-dihydroxy-3-phenylthiopropyl)-2-[(methylethyl)amino]-3-hydropteridin-4-one (the compound labeled “15” in FIG. 4). To a flask containing 50 grams of 6-((2S,1R)-1,2,3-trihydroxypropyl)-2-[(1Z)-1-aza-2-(dimethylamino)vinyl]-3-hydropteridin-4-one (DMA-Neopterin, the compound labeled “6” in FIG. 2) and 400 ml of dimethylaminoacetate was added to the flask. To this stirring mixture 1 molar equivalent of diphenyl disulfide and tributylphosphine were added to the flask. […] It is believed that the thioether product is more soluble in dimethylaminoacetate. The reaction mixture was allowed to was allowed to stir for 4 hours at room temperature. Nine grams of the thioether product was isolated.

solubility in dimethylaminoacetate: approximately 3.5 mg/ml
SMILES: CN(C)C=Nc1nc2ncc([C@@H](O)[C@@H](O)CO)nc2c(=O)[nH]1 [DMA-Neopterin, 6-((2S,1R)-1,2,3-trihydroxypropyl)-2-[(1Z)-1-aza-2-(dimethylamino)vinyl]-3-hydropteridin-4-one]
